Data as given in patent EP4537820A1, “COMPOUND AND COMBINATIONS COMPRISING SAID COMPOUND TO IMPROVE IMMUNE RESPONSE” (Institut Gustave-Roussy, priority 2023, dated 2025).

Tests used:
20S-REGγ proteasome = target: T1, 20S-REGγ proteasome (Homo sapiens, UniProt P61289); experiment: Proteasome Activity Assay with fluorogenic AMC substrates, in presence of REGγ; format: biochemical; settings: 0.5nM human 20S + 12.5nM human REGγ
T1 construct: made in house
Description: Proteasome Activity Assay - The activity of the 20S and 20S-REGγ proteasomes was followed by fluorescence using the Bz-VGR-AMC (#BML-BW9375-0005, Enzo Life Sciences) substrate at 50µM for tryspin-like activity, the Suc-LLVY-AMC (#BML-P802-0005, Enzo Life Sciences) substrate at 100µM for the chemotrypsin-like activity and the Z-LLE-AMC (#BML-ZW9345-0005, Enzo Life Sciences) substrate at 100µM for the caspase-like activity. Substrates were incubated with 0,5nM of human 20S ((#E-360-050, Biotechne) and 12,5nM of human REGγ or 2nM of human REGαβ with or without compounds at different concentrations. Purified human REGγ and REGGαβ were generously provided by Julien Marcoux and Marie-Pierre Bousquet-Dubouch. Human REGγ and REGαβ were purified according to Le Feuvre et al., 2009 from plasmids kindly provided by Olivier Coux. The activity assay was performed in 96 well plates in a final volume of 80µL. Plates were read every minute for 90 minutes with a FLUOstar plate reader (BMG Labtech). To detect fluorescence, the excitation wavelength was set to 355nm and emission wavelength at 460nm.
The activity of the 20S and 20S-REGγ proteasomes was followed by fluorescence using the Bz-VGR-AMC (#BML-BW9375-0005, Enzo Life Sciences) substrate at 50µM for trypsin-like activity, the Suc-LLVY-AMC (#BML-P802-0005, Enzo Life Sciences) substrate at 100µM for the chemotrypsin-like activity and the Z-LLE-AMC (#BML-ZW9345-0005, Enzo Life Sciences) substrate at 100µM for the caspase-like activity. […]

20S-REGγ complex = target: T2, 20S-REGγ complex (Homo sapiens, UniProt P61289); experiment: First confirmatory counter-screen of hits, fluorescence kinetic proteasome activity test; format: biochemical; settings: counter-screen at 10, 20 and 40µM, 90min kinetic assay
T2 construct: purchased Biotechne E-360-050 (20S); E-384-MTO (REGγ); host or cells: 20S from human erythrocytes
T2 sequence (P61289 whole entry, one chain of several): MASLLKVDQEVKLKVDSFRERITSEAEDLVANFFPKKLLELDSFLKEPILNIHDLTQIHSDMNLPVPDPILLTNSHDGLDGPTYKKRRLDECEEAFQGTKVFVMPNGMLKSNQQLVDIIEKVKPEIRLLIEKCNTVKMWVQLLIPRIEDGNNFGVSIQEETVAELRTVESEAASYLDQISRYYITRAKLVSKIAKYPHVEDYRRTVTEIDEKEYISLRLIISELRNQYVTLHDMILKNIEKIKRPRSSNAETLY
Description: The 3 chemical libraries tested were obtained from the NIH : The Natural Products set (NP.V) consisting of 390 compounds, the Oncology Approved Drugs set (AOD.IX) consisting of 147 FDA-approved compounds and the Diversity set (DIV.VI) consisting of 1584 compounds. Libraries were prepared and screened with a Biomek FXP workstation in 384 well plates. Compounds activity was assessed using a fluorescence activity test of the proteasome using the Bz-VGR-AMC fluorogenic substrate (#BML-BW9375-0005, Enzo Life Sciences). […] After preparation of the mix, plates were incubated for 2h at 37°C before being read on a Spectramax i3 microplate reader from Molecular devices (Excitation wavelength : 345nm; Emission wavelength : 445nm). […]
After QC verification, each plate was normalized to the mean of the VGR control. For every quadruplicate the most different value from the mean was eliminated and the fluorescence mean for each compound was calculated on the 3 remaining values. The percentage of inhibition of a compound was calculated according to, as follows : %Inhibition(compound) = (MeanREG,plate −Meancompound)/(MeanREG,plate −Mean20S,plate) × 100, [formula] for the condition with REG[…]. […]
(§1) After conducting the screening and validating the quality control using a custom algorithm, they analyzed the data to select their hits. […]

20S proteasome = system: T3, 20S proteasome; experiment: Second confirmatory counter-screen of hits on the proteasome alone; format: biochemical, human; settings: counter-screen on 20S proteasome only, without REGγ
T3 construct: purified 20S proteasome from human erythrocytes; purchased Biotechne E-360-050; host or cells: human erythrocytes
Description: The 3 chemical libraries tested were obtained from the NIH : The Natural Products set (NP.V) consisting of 390 compounds, the Oncology Approved Drugs set (AOD.IX) consisting of 147 FDA-approved compounds and the Diversity set (DIV.VI) consisting of 1584 compounds. Libraries were prepared and screened with a Biomek FXP workstation in 384 well plates. Compounds activity was assessed using a fluorescence activity test of the proteasome using the Bz-VGR-AMC fluorogenic substrate (#BML-BW9375-0005, Enzo Life Sciences). 50µM of the fluorogenic substrate was used with 20µM of the tested compound, and 2nM of 20S human proteasome (#E-360-050, Biotechne) in presence or absence of 50nM of human REGγ (#E-384-MTO, Biotechne). After preparation of the mix, plates were incubated for 2h at 37°C before being read on a Spectramax i3 microplate reader from Molecular devices (Excitation wavelength : 345nm; Emission wavelength : 445nm). […]
Using the control condition without REGγ, they then eliminated compounds that were inhibiting the 20S proteasome, using the 95% interval of confidence of the 20S control for each plate. […] Fluorescence was measured every minute with a FLUOstar plate reader (BMG Labtech). […]
as §1

T1 sequence (P61289 whole entry): as the sequence (P61289 whole entry, one chain of several) above

- concentration at which inhibition of trypsin-like activity starts (20S-REGγ proteasome; Bz-VGR-AMC 50µM, stronger effect at 100 µM): 50 µM
- concentration at which chymotrypsin-like activity is inhibited (20S-REGγ proteasome; Suc-LLVY-AMC 100µM, inhibited only at this concentration): 100 µM
- concentration at which inhibition of caspase-like activity starts (20S-REGγ proteasome; Z-LLE-AMC 100µM, stronger effect at 100 µM): 50 µM
- inhibition of the 20S core alone (20S proteasome): without inhibiting the 20S core alone
Structure (SMILES): Cc1ccc(N=Nc2ccc(C)cc2NC(=O)Nc2ccccc2F)cc1 [compound 58]
- inhibition of the effect of REGγ on proteasomal protein degradation (20S-REGγ complex): inhibit the effect of REGγ on proteasomal protein degradation
